Results as given in patent publication US6479474B2, “Dietary calcium as a supplement to vitamin D compound treatment of multiple sclerosis” (Wisconsin Alumni Research Foundation, priority 1999, dated 2002).

Legend:
[1] = system: IFN-γ; conditions: in vivo treatments, literature (Cantorna 1998b); cited from earlier work
[2] = system: IL-4 mRNA; conditions: in vivo treatments, literature (Cantorna 1998b); cited from earlier work
[3] = Serum calcium by atomic absorption spectrometry; format: in vivo, mice; conditions: high dietary calcium, at EAE-preventing doses (6 ng/d females, 100 ng/d males)
Procedure: Serum calcium and 1,25-(OH)2D3 analysis. After 50 days the mice were killed, blood was collected by heart puncture and serum was collected following clot formation. Serum calcium concentrations were determined using a Perkin Elmer atomic absorption spectrometer exactly as described (Mohamed, et al., 1995). 1,25-(OH)2D3 analysis was done exactly as described (Arbour, et al., 1996).

[4] = system: IL-4 mRNA; experiment: IL-4 transcript analysis in LN by quantitative competitive PCR; format: in vivo; conditions: male mice with EAE, 100 ng daily
Procedure: (§1) Transcript analysis by quantitative competitive PCR. Cells for mRNA analysis were dissolved in acid guanidinium thiocyanate, and total RNA was isolated by the phenol chloroform extraction method (Chomczynski and Sacchi, 1987). Total cellular RNA was reverse-transcribed using oligo dT primers according to the manufacturer's protocols (Promega) and quantitated by competitive PCR. Primers and mimic DNA specific for glyceraldehyde-3-phosphate dehydrogenase (G3PDH), IL-4 and TGF-β1 were obtained from Clontech Laboratories, Inc. (Palo Alto, Calif.) (Siebert and Larrick, 1992; Siebert and Larrick, 1993). Competitive cDNA mimics which included the G3PDH, IL-4 and TGF-β1 primer sequences adjoining a neutral DNA segment, were serially diluted and added to test cDNA aliquots (Siebert and Larrick, 1992; Siebert and Larrick, 1993). The authentic product to mimic bp sizes were 983/600 for G3PDH, 306/544 for IL-4, and 525/390 for TGF-β1. The mixture was amplified under predetermined optimal conditions and the products were resolved by 1.5% agarose gel electrophoresis and ethidium bromide stained. […] The mimic DNA dilution that yielded a band with a fluorescence intensity that matched the cytokine band was used to calculate cytokine cDNA copy number. The G3PDH transcript quantitation served as a control for reverse transcription efficiency. […]

[5] = system: LN cells; experiment: Flow cytometry of LN cell populations (Thy-1, CD4, CD8); format: in vivo, mice; conditions: regardless of dietary calcium or 1,25-(OH)2D3 treatment
Procedure: (§2) Lymphocytes. Axillary, brachial and inguinal lymph nodes (LN) from 6 mice were collected and pooled from control and 1,25-(OH)2D3 treated mice on d 21 post-immunization. Each experiment was repeated 3 times in its entirety. These LNs were chosen because they drained the site of immunization. Collected LN were disrupted manually using a 23 g needle and a pair of forceps. Total cell numbers in the LN were determined by counting the number of lymphocytes from control- and 1,25-(OH)2D3 treated mice and dividing by the number of mice in the group. Flow cytometry of fluorescent-labeled cell populations (Thy-1, class II, CD4 and CD8) were done on LN cells from control- and 1,25-(OH)2D3-treated mice using standard protocols and exactly as described (Smith, et al., 1987). For cytokine PCR analysis, LN cells were saved for total cellular RNA isolation.

[6] = system: TGF-β1 mRNA; experiment: TGF-β1 transcript analysis in LN by quantitative competitive PCR; format: in vivo; conditions: male mice with EAE, 100 ng daily, regardless of dietary calcium and number of cells in the LN
Procedure: as §1

[7] = system: TGF-β1 mRNA; conditions: in vivo treatments, literature (Cantorna 1998b); cited from earlier work
[8] = system: experimental arthritis; conditions: literature (Cantorna 1998a); cited from earlier work
[9] = system: lymphocytes in the draining LN; experiment: Total cell numbers in the draining lymph nodes of mice with EAE; format: in vivo; conditions: male mice with EAE, 100 ng daily, d 21 post-immunization
Procedure: as §2

[10] = Body weight at end of the 50 d experiment; format: in vivo; conditions: male mice, end of 50 d experiment, mean ± SD
Description: (§3) Animals and Diets. The B10.PL mice were produced in our colony using breeding pairs obtained from Jackson Laboratories (Bar Harbor, Me.). During breeding, the mice were fed Purina diet 5008 Formilab (Richmond, Ind.), containing 100 IU/g of cholecalciferol (vitamin D3). Mice were used for experiments at 6-8 wk of age at which time the females were 18-22 g and the males were 22-26 g. For experiments, all of the mice were fed synthetic diets (Yang, et al., 1993; Smith, et al., 1987) with the modifications described below. For all experiments each mouse was fed 4 g of the experimental diet (completely eaten) and the diets were replaced every 2-3 days for the duration of each experiment. […] Although the experimental diet was devoid of vitamin D, the mice were exposed to normal light and, therefore, were not vitamin D deficient. EAE was induced in all mice one week after the experimental diets were started. For mice with severe symptoms of EAE, food was placed in small dishes on the bottom of the cage. At the end of the experiments, mice were weighed, killed, and bled.

[11] = system: transplant rejection; conditions: literature (Bouillon 1995; Hullett 1998); cited from earlier work
[12] = system: experimental autoimmune encephalomyelitis (EAE) in B10.PL mice; experiment: EAE induction in B10.PL mice fed 1,25-(OH)2D3 and various dietary calcium: EAE incidence and prevention; format: in vivo; conditions: for prevention of EAE: 20 mg calcium/100 g diet (low); for incidence of EAE: 20 mg calcium/100 g diet, lower doses that do not raise serum calcium; for times more 1,25-(OH)2D3 needed to prevent EAE in males than females: males vs females
Description: as §3
In the first experimental design, male and female mice were fed diets which contained 1 g calcium/100 g diet and EAE was induced. In a second series of experiments groups of 8-12 mice were fed the experimental diet (control treatment) without vitamin D or the experimental diet plus various concentrations of 1,25-(OH)2D3 as indicated. Females were fed 1,25-(OH)2D3 ranging from 0 to 200 ng/d and the males were fed 0 to 800 ng/d. The experimental diet contained one of 3 calcium concentrations; 20 mg (low), 470 mg (medium) or 1 g (high) calcium/100 g diet as indicated. The final experimental design used only male which were fed the control diet or the same diet containing 100 ng 1,25-(OH)2D3/daily. These mice were fed diets, which contained low, medium, or high calcium as indicated. […] All of the procedures described were reviewed and approved by the University of Wisconsin-Madison Research Animal Resources Center Committee Review Board on Sep. 9, 1994 and the protocol number is A-07-3000-A00755-4-08-94.
EAE disease induction. Myelin basic protein (MBP) was isolated from guinea pig spinal cords (Cantorna, et al., 1996). MBP was lyophilized and stored at −20° C. For immunizations, MBP was dissolved in 0.1 mol/L acetic acid at a concentration of 8 g/L (Cantorna, et al., 1996). Ether anesthetized mice were immunized subcutaneously with 0.1 ml of MBP ([…]) emulsified in an equal volume of Complete Freund's Adjuvant (CFA, Difco Laboratories, Detroit, Mich.) containing Mycobacterium tuberculosis H37 Ra. In addition, on the day of immunization and two days later mice were injected i.p. with 200 ng of pertussis toxin (LIST Biological Laboratories, Campbell, Calif.) suspended in sterile saline. […] Male mice were killed on d 21 post-immunization to measure various immune responses. The EAE scoring system was: 0=normal; 1=limp tail; 2=paraparesis with a clumsy gait; 3=hind limb paralysis; 4=hind and fore limb paralysis; 5=moribund.

[13] = system: lymphocytes in the draining LN; conditions: in vivo treatments, literature (Cantorna 1998b); cited from earlier work
[14] = system: experimental autoimmune encephalomyelitis (EAE) in B10.PL mice; conditions: literature (Cantorna 1996; Lemire and Archer 1991); cited from earlier work
[15] = system: G3PDH mRNA; experiment: G3PDH transcript analysis in LN by quantitative competitive PCR; format: in vivo; conditions: LN of male mice with EAE, 100 ng daily
Procedure: as §1

[16] = system: TNF-α; conditions: in vivo treatments, literature (Cantorna 1998b); cited from earlier work

## C=C1/C(=C\C=C2/CCC[C@]3(C)[C@@H]([C@H](C)CCCC(C)(C)O)CC[C@@H]23)C[C@@H](O)C[C@@H]1O [1,25-(OH)2D3, 1α,25-dihydroxyvitamin D3]
[1]
  IFN-γ expression: no effect
[2]
  expression of IL-4: net increase
[3]
  serum calcium: elevated
[4]; low calcium diets
  IL4 production (mRNA in LN): not different from controls
[4]; medium to high calcium diets
  amount of IL-4 produced (mRNA in LN): increased as the calcium in the diet increased
[5]
  CD4+ cells: 40-44 % of the LN
  CD8+ cells: 18-21 % of the LN
  Thy-1 positive cells: 52-57 % of the LN
[6]
  TGF-β1 mRNA expression in LN: high levels of TGF-β1
[7]
  expression of TGF-β1: net increase
[8]
  development of experimental arthritis: prevent
[9]; low calcium diets
  total number of cells in the LN: the same as controls
[9]; with addition of calcium to the diet
  total number of cells in the LN: decreased dramatically
[10]; dietary calcium 20 mg/100 g, high dose 800 ng/day
  Weight: 13 ± 3 g
[10]; dietary calcium 20 mg/100 g, intermediate dose 40-500 ng/d
  Weight: 27 ± 2 g
[10]; dietary calcium 470 mg/100 g, high dose 400 ng/day
  Weight: 17 ± 3 g
[10]; dietary calcium 470 mg/100 g, intermediate dose 50-200 ng/d
  Weight: 23 ± 2 g
[10]; dietary calcium 1 g/100 g, high dose 100-400 ng/day
  Weight: 15 ± 1 g
[10]; dietary calcium 1 g/100 g, intermediate dose 10-50 ng/d
  Weight: 25 ± 2 g
[11]
  transplant rejection: markedly inhibit transplant rejection
[12]; calcium removed from the diet
  reduction of the incidence of EAE: 50%
[12]; diet containing high calcium, appropriate doses
  effectiveness in preventing EAE: 100%
[12]; females, at 200 ng/d
  prevention of EAE: never completely prevented
[12]; females
  incidence of EAE: 45%
[12]; females, 470 mg calcium/100 g diet (medium)
  dose at which EAE was completely prevented: 200 ng/day
[12]; females, 1 g calcium/100 g diet (high)
  dose at which EAE was completely prevented: 6 ng/day
[12]; low calcium diets, males and females
  drop in EAE incidence compared to mice not treated: 40-45%
[12]; high calcium intakes
  times more 1,25-(OH)2D3 needed to prevent EAE in males than females: 17 times
[12]; overall
  times more 1,25-(OH)2D3 needed to prevent EAE in males than females: at least 4 times
[12]; males, at 800 ng/d
  prevention of EAE: never completely prevented
[12]; males
  incidence of EAE: 30%
[12]; males, 470 mg calcium/100 g diet (medium)
  dose at which EAE was completely prevented: 400 ng/day
[12]; males, 1 g calcium/100 g diet (high)
  dose at which EAE was completely prevented: 100 ng/day
[12]; treated mice, as the incidence dropped (data not shown)
  overall symptoms of EAE (day of onset, paralysis scores): decreased
[13]
  total number of lymphocytes: net loss
[14]
  development of EAE: prevent the development of EAE
[15]
  G3PDH mRNA expression: no effect
[16]
  TNF-α expression: no effect
